The results in this text go back to ChEMBL document CHEMBL4393664, “2,4-Disubstituted quinazolines targeting breast cancer cells via EGFR-PI3K” (Eur J Med Chem, 2019).

The subject of data set [1] is MCF7. Put plainly: Inhibition of colony formation in human MCF7 cells at 9 uM after 7 days by crystal violet staining based microscopic analysis. Type of data set: functional, cell-based.
The subject of data set [2] is MDA-MB-231. Briefly: Cell cycle arrest in human MDA-MB-231 cells assessed as accumulation at G2 phase at 12 uM after 24 hrs by propidium iodide/RNase A staining-based flow cytometric analysis (reference value: 27.76%). Type of data set: functional. Background: A flow cytometer gives signals particle by particle.
Data set [3] concerns MCF7. Put plainly: Cell cycle arrest in human MCF7 cells assessed as accumulation at G1 phase at 3 uM after 24 hrs by propidium iodide/RNase A staining-based flow cytometric analysis (reference value: 52.21%). Type of data set: functional.
The test system of data set [4] is MCF7. Put plainly: Cell cycle arrest in human MCF7 cells assessed as accumulation at G2 phase at 6 uM after 24 hrs by propidium iodide/RNase A staining-based flow cytometric analysis (reference value: 30.62%). The data set is classed as functional.
Data set [5] has as its system MDA-MB-231. Put plainly: Induction of apoptosis in human MDA-MB-231 cells assessed as viable cells at 4 uM after 48 hrs by Annexin-V-FITC/propidium iodide staining based flow cytometry (reference value: 92.1%). The settings on record: MDA-MB-231, 48 h, read-out: Activity. Type of data set: functional.
Data set [6] has as its system MCF7. Put plainly: Induction of apoptosis in human MCF7 cells assessed as late apoptotic cells at 2 uM after 48 hrs by Annexin-V-FITC/propidium iodide staining based flow cytometry (reference value: 4.28%). The data set is classed as functional.
Data set [7] deals with MCF7. Briefly: Induction of apoptosis in human MCF7 cells assessed as viable cells at 4 uM after 48 hrs by Annexin-V-FITC/propidium iodide staining based flow cytometry (reference value: 91.1%). The data set is classed as functional. The settings on record: MCF7, 48 h, read-out: Activity.
Data set [8] concerns MDA-MB-231. Briefly: Induction of apoptosis in human MDA-MB-231 cells after 48 hrs by Annexin-V-FITC/propidium iodide staining based flow cytometry. Type of data set: functional, cell-based.
In data set [9] the test system is MDA-MB-231. Briefly: Induction of apoptosis in human MDA-MB-231 cells assessed as increase in Bax expression levels at 3 to 12 uM after 48 hrs by Western blot analysis. Type of data set: functional, cell-based.
The subject of data set [10] is MCF7. Put plainly: Effect on total EGFR protein level in human MCF7 cells up to 12 uM after 8 hrs by Western blot analysis. The data set is classed as ADME, cell-based. The conditions noted are these: mcf7, 8 h. On the technique in general: A western blot detects proteins with antibodies after separation by electrophoresis.

Structures are written as SMILES. The source made the active and inactive calls. The calls are words filed in the database; no cut-off is given here.

Consider `FC(F)(F)c1ccc(CSc2nc(Nc3ccc(C(F)(F)F)cc3)c3ccccc3n2)cc1`, for which, in data set [1], the “growth inhibition (GI)” value was “Active”. The Activity in data set [2] is 11.69%; in data set [3], 59.18%; in [4], 15.43%; in [6], 4.26%; in [8] it was “Dose-dependent effect”; in data set [10], “Non-Toxic”. In addition, the viability at 4 µM came out at 71.1% in data set [5] and 76.2% in [7]. Moreover, in data set [9], the outcome was Active.
